The text below walks through data of publication PMC8272242 (Molecules, 2021).

Each structure is given as a SMILES string.

The nature of the data set: thermal stability during DSC measurements (FTIR-ATR and weight before and after). The format is physicochemical. As to conditions: across the range of temperatures used in the DSC study (solid and melt). The method, then:
No polymorphs or solvates have so far been reported. However, in order to confirm that no crystal phase or pseudo-polymorphic transitions occurred during solubility measurements, the sediments collected after flask-shake experiments were analyzed using DSC and FTIR-ATR techniques. The results of these measurements are summarized in supplementary materials in Figures S1 and S2. The solvate formation can be identified by the absorption band shifts on the IR spectra. With DSC thermograms, the formation of a new crystal form would be associated with polymorphic transformations or solvate degradation found prior to the melting peak. Both IR spectra and DSC thermograms recorded for sediments were similar to pure phenacetin. […] As documented in Figure 1, both spectra are nearly identical as indicated by the differential plot.
It is notable that the temperature trends are linear, and it is reasonable to expect that a change of heat capacity values associated with melting ∆Cp would adopt a linear temperature relationship.
The calibration was performed using zinc and indium standards.
(DSC measures the heat that a sample takes up or gives off during a temperature scan.)

For `CCOc1ccc(NC(C)=O)cc1` [phenacetin, N-(4-ethoxyphenyl)acetamide], the thermal stability result is listed as “stable”.
